Source: PubChem BioAssay AID2060910 (Molecular Pharmacology Branch, DTP, NCI, 2025)

System: 242566-281-R-J2-PDC complex spheroid viability
Experiment: Anticancer human tumor 242566-281-R-J2-PDC patient-derived pancreatic carcinoma cell line growth inhibition [RAS]
Settings: for IC50: curve of first compound; for viability, T/C: stronger effect = lower value
In short: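 Multi-cell-type spheroids: tumor cells plus HUVEC endothelial cells and mesenchymal stem cells. RAS-pathway inhibitors were combined with targeted agents, each dosed in half-log steps down from clinical Cmax, or from 10 microM when Cmax was unknown.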

[1] = second compound 0.00316 µM, first compound 0.0316 µM
[2] = second compound 0.00316 µM, first compound 0.1 µM
[3] = second compound 0.00316 µM, first compound 0.316 µM
[4] = second compound 0.00316 µM, first compound 1 µM
[5] = second compound 0.00316 µM, first compound 3.16 µM
[6] = second compound 0.00316 µM, first compound 10 µM
[7] = second compound 0.01 µM, first compound 0.0316 µM
[8] = second compound 0.01 µM, first compound 0.1 µM
[9] = second compound 0.01 µM, first compound 0.316 µM
[10] = second compound 0.01 µM, first compound 1 µM
[11] = second compound 0.01 µM, first compound 3.16 µM
[12] = second compound 0.01 µM, first compound 10 µM
[13] = second compound 0.0316 µM, first compound 0.0316 µM
[14] = second compound 0.0316 µM, first compound 0.1 µM
[15] = second compound 0.0316 µM, first compound 0.316 µM
[16] = second compound 0.0316 µM, first compound 1 µM
[17] = second compound 0.0316 µM, first compound 3.16 µM
[18] = second compound 0.0316 µM, first compound 10 µM
[19] = second compound 0.1 µM, first compound 0.0316 µM
[20] = second compound 0.1 µM, first compound 0.1 µM
[21] = second compound 0.1 µM, first compound 0.316 µM
[22] = second compound 0.1 µM, first compound 1 µM
[23] = second compound 0.1 µM, first compound 3.16 µM
[24] = second compound 0.1 µM, first compound 10 µM
[25] = second compound 0.316 µM, first compound 0.0316 µM
[26] = second compound 0.316 µM, first compound 0.1 µM
[27] = second compound 0.316 µM, first compound 0.316 µM
[28] = second compound 0.316 µM, first compound 1 µM
[29] = second compound 0.316 µM, first compound 3.16 µM
[30] = second compound 0.316 µM, first compound 10 µM
[31] = second compound 1 µM, first compound 0.0316 µM
[32] = second compound 1 µM, first compound 0.1 µM
[33] = second compound 1 µM, first compound 0.316 µM
[34] = second compound 1 µM, first compound 1 µM
[35] = second compound 1 µM, first compound 3.16 µM
[36] = second compound 1 µM, first compound 10 µM
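Further: spheroids exposed to compound for 7 days before readout.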
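Wherever viability, T/C is given: 100% = DMSO vehicle control wells.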

Question: What does the source list for `CC(C)NCC(C(=O)N1CCN(c2ncnc3c2C(C)CC3O)CC1)c1ccc(Cl)cc1` (centres undefined) + C=CC(=O)N1CCN(c2nc(OCC3CCCN3C)nc3c(F)c(-c4nc(N)cc(C)c4C(F)(F)F)c(Cl)cc23)C(C)C1?
Answer: IC50 (second compound 0.00316 µM): > 10 µM; IC50 (second compound 0.01 µM): > 10 µM; IC50 (second compound 0.0316 µM): > 10 µM; IC50 (second compound 0.1 µM): > 10 µM; IC50 (second compound 0.316 µM): > 10 µM; IC50 (second compound 1 µM): > 10 µM; viability, T/C [1]: 115%; viability, T/C [2]: 99.9%; viability, T/C [3]: 106%; viability, T/C [4]: 90.6%; viability, T/C [5]: 81.9%; viability, T/C [6]: 84.9%; viability, T/C [7]: 100%; viability, T/C [8]: 122%; viability, T/C [9]: 102%; viability, T/C [10]: 98.7%; viability, T/C [11]: 91.2%; viability, T/C [12]: 89.3%; viability, T/C [13]: 107%; viability, T/C [14]: 117%; viability, T/C [15]: 90.9%; viability, T/C [16]: 93.1%; viability, T/C [17]: 90.9%; viability, T/C [18]: 86.2%; viability, T/C [19]: 91.8%; viability, T/C [20]: 104%; viability, T/C [21]: 95.1%; viability, T/C [22]: 89.1%; viability, T/C [23]: 87.5%; viability, T/C [24]: 77.7%; viability, T/C [25]: 98.6%; viability, T/C [26]: 114%; viability, T/C [27]: 97.5%; viability, T/C [28]: 88%; viability, T/C [29]: 88%; viability, T/C [30]: 81.2%; viability, T/C [31]: 99.6%; viability, T/C [32]: 133%; viability, T/C [33]: 107%; viability, T/C [34]: 101%; viability, T/C [35]: 77.6%; viability, T/C [36]: 82.9%

Question: How did the IC50 (second compound 0.00316 µM) turn out when `Cc1nc(N2CCC3(CC2)COC(C)C3N)c(CO)nc1Sc1ccnc(N)c1Cl` (centres undefined) + C=CC(=O)N1CCN(c2nc(OCC3CCCN3C)nc3c(F)c(-c4nc(N)cc(C)c4C(F)(F)F)c(Cl)cc23)C(C)C1 was run?
Answer: The IC50 was greater than 10 µM.

Question: What about the IC50 (second compound 0.01 µM) of the same molecule?
Answer: Its IC50 is greater than 10 µM.

Question: And the IC50 (second compound 0.0316 µM)?
Answer: Its IC50 is greater than 10 µM.

Question: And the IC50 (second compound 0.1 µM)?
Answer: The IC50 was greater than 10 µM.

Question: And the IC50 (second compound 0.316 µM)?
Answer: The IC50 was greater than 10 µM.

Question: What about the IC50 (second compound 1 µM) of the same molecule?
Answer: The IC50 was greater than 10 µM.

Question: And the viability, T/C [1]?
Answer: The viability, T/C was 115%.

Question: And the viability, T/C [2]?
Answer: Its viability, T/C is 136%.

Question: And the viability, T/C [3]?
Answer: The viability, T/C was 102%.

Question: What about the viability, T/C [4] of the same molecule?
Answer: Its viability, T/C is 80.1%.

Question: And the viability, T/C [5]?
Answer: Its viability, T/C is 104%.

Question: And the viability, T/C [6]?
Answer: Its viability, T/C is 105%.

Question: What about the viability, T/C [7] of the same molecule?
Answer: The viability, T/C was 129%.

Question: What about the viability, T/C [8] of the same molecule?
Answer: The viability, T/C was 120%.

Question: What about the viability, T/C [9] of the same molecule?
Answer: The viability, T/C was 89.3%.

Question: What about the viability, T/C [10] of the same molecule?
Answer: The viability, T/C was 70.8%.

Question: What about the viability, T/C [11] of the same molecule?
Answer: Its viability, T/C is 94%.

Question: What about the viability, T/C [12] of the same molecule?
Answer: Its viability, T/C is 116%.

Question: What about the viability, T/C [13] of the same molecule?
Answer: Its viability, T/C is 118%.

Question: And the viability, T/C [14]?
Answer: Its viability, T/C is 124%.

Question: And the viability, T/C [15]?
Answer: Its viability, T/C is 99.1%.

Question: And the viability, T/C [16]?
Answer: The viability, T/C was 77.4%.

Question: What about the viability, T/C [17] of the same molecule?
Answer: Its viability, T/C is 100%.

Question: And the viability, T/C [18]?
Answer: The viability, T/C was 120%.

Question: And the viability, T/C [19]?
Answer: The viability, T/C was 157%.

Question: And the viability, T/C [20]?
Answer: Its viability, T/C is 119%.

Question: What about the viability, T/C [21] of the same molecule?
Answer: Its viability, T/C is 89.4%.

Question: And the viability, T/C [22]?
Answer: The viability, T/C was 84.6%.

Question: What about the viability, T/C [23] of the same molecule?
Answer: The viability, T/C was 83.1%.

Question: And the viability, T/C [24]?
Answer: The viability, T/C was 113%.

Question: And the viability, T/C [25]?
Answer: Its viability, T/C is 132%.

Question: And the viability, T/C [26]?
Answer: Its viability, T/C is 151%.

Question: And the viability, T/C [27]?
Answer: Its viability, T/C is 96%.

Question: And the viability, T/C [28]?
Answer: The viability, T/C was 85%.

Question: What about the viability, T/C [29] of the same molecule?
Answer: The viability, T/C was 102%.

Question: And the viability, T/C [30]?
Answer: Its viability, T/C is 113%.

Question: What about the viability, T/C [31] of the same molecule?
Answer: The viability, T/C was 141%.

Question: What about the viability, T/C [32] of the same molecule?
Answer: The viability, T/C was 130%.

Question: What about the viability, T/C [33] of the same molecule?
Answer: Its viability, T/C is 93.2%.

Question: And the viability, T/C [34]?
Answer: The viability, T/C was 85.7%.

Question: What about the viability, T/C [35] of the same molecule?
Answer: The viability, T/C was 112%.

Question: What about the viability, T/C [36] of the same molecule?
Answer: The viability, T/C was 113%.
